Data taken from ChEMBL document CHEMBL1201862, “PubChem BioAssay data set” (2004).
Calls of active or inactive are those of the source.

Legend:
[1] = target: Voltage-gated inwardly rectifying potassium channel KCNH2 (Homo sapiens, UniProt Q12809); settings: Potency;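 further: confirmatory quantitative high-throughput screen measuring inhibition of hERG channel activity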
[2] = target: Acyl-homoserine lactone acylase PvdQ (Pseudomonas aeruginosa (strain LESB58), UniProt Q9I194); experiment: PvdQ acylase enzyme activity blockers – biochemical, fluorescence, plate reader and imaging, cherry-picks, dose response (AID 493231)
[3] = system: HeLa; experiment: toxicity to human HeLa cells – cell-based, 48 h, plate reader, cherry-picks, cytotoxicity control, dose response (AID 504942); format: functional
[4] = system: Escherichia coli; experiment: microbe, parasite or virus in culture
[5] = target: T1, Microphthalmia-associated transcription factor (Homo sapiens, UniProt O75030); experiment: reducers of TRPM1 reporter luminescence, concentration series – cell-based, SK-MEL-5, cherry-picked, set 3, MITF inhibitor project, dose response (AID 493073); format: functional;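 further: SK-MEL-5 melanoma cells with luciferase driven by the MITF target TRPM1 promoter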
T1 sequence (O75030 whole entry): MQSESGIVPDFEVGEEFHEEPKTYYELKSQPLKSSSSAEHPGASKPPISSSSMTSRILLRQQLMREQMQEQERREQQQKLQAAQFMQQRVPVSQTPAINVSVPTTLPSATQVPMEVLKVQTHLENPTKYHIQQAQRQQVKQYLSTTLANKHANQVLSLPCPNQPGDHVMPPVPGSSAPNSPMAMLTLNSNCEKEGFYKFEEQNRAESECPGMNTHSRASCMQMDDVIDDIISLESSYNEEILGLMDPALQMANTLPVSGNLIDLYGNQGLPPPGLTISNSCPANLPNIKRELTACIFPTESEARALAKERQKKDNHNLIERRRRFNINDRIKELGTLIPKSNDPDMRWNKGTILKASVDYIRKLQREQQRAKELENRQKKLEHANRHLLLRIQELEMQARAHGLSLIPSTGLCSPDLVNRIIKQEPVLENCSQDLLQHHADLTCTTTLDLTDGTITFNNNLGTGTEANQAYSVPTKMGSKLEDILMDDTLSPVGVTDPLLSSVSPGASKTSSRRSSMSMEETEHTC

[6] = system: A-375; experiment: MITF: Counter assay: A375 proliferation Measured in Cell-Based System Using Plate Reader - 2084-03_Inhibitor_Dose_DryPowder_Activity. [Related pubchem assays (depositor defined):AID488944]; format: functional; settings: Homo sapiens
[7] = system: A-375; experiment: proliferation inhibition in MITF-low A375 cells – cell-based, cherry-pick samples, set 2, counter-screen for MITF modulator project, dose response (AID 540335); format: functional; settings: Homo sapiens
[8] = target: T2, Hexokinase-1 (Homo sapiens, UniProt P19367); experiment: hexokinase 1 activity inhibitors, potency – biochemical, set 2, resazurin fluorescence coupled readout, selectivity assay for HKDC1 inhibitor project, SAR follow-up (AID 588356); format: functional
[9] = target: T3, Hexokinase HKDC1 (Homo sapiens, UniProt Q2TB90); experiment: analog inhibition of human HKDC1 activity – biochemical, set 2, SAR follow-up (AID 588355); format: functional
T3 sequence (Q2TB90 whole entry): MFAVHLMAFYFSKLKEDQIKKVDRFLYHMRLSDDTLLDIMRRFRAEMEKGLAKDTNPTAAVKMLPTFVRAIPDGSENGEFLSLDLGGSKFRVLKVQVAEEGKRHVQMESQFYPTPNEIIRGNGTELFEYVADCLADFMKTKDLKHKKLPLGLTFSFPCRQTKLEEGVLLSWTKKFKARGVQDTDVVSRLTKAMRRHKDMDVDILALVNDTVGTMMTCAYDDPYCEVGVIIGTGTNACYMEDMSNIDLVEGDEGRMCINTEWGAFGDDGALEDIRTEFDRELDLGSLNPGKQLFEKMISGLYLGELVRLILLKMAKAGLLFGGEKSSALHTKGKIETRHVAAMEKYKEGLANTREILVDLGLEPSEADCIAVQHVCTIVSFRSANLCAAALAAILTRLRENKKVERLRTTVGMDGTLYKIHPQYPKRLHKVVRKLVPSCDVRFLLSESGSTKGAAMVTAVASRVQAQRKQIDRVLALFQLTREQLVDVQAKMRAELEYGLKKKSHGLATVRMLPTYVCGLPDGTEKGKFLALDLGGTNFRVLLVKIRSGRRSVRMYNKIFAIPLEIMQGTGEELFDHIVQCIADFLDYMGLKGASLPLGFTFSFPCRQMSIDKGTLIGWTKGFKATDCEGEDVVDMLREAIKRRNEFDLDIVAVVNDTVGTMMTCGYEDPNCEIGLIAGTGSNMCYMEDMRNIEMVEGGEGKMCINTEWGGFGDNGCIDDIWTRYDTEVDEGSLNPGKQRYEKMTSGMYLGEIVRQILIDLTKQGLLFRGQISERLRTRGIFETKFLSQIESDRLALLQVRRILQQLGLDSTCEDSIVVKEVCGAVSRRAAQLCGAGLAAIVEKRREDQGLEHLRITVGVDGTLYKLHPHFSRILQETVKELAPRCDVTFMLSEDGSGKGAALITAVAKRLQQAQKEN

[10] = target: T2, Hexokinase-1; experiment: SAR analysis of small molecule inhibitors of hexokinase domain containing I (HKDC1) in the hexokinase 1 selectivity assay. [Related pubchem assays (depositor defined):AID493160, AID493190]; format: functional
[11] = target: T3, Hexokinase HKDC1; experiment: SAR analysis of small molecule inhibitors of hexokinase domain containing I (HKDC1). [Related pubchem assays (depositor defined):AID493160, AID493190]; format: functional

T2 sequence (P19367 whole entry): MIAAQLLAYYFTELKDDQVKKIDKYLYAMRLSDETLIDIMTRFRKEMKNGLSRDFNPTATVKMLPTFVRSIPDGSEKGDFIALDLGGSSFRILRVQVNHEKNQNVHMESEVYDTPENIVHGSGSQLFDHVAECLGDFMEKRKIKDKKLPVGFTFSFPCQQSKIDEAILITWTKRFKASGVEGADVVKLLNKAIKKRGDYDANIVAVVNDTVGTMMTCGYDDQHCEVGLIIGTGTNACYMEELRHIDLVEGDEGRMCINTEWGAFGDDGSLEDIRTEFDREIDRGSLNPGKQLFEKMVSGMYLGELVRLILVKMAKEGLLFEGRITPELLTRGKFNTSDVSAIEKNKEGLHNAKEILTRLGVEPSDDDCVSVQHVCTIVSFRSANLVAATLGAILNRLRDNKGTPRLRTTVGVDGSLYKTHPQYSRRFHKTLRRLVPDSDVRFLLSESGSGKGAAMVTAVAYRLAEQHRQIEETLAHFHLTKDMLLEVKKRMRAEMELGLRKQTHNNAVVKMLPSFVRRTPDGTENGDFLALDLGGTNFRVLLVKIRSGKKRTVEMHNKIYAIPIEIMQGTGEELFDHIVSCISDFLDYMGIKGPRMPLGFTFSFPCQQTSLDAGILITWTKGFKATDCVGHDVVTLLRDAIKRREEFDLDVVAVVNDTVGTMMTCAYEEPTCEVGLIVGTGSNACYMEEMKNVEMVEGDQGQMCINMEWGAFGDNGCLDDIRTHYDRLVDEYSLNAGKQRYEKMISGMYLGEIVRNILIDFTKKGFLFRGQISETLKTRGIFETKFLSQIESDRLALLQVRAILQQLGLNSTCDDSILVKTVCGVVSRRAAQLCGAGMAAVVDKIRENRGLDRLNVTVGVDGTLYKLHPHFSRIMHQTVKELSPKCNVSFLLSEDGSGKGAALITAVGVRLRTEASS
Acyl-homoserine lactone acylase PvdQ, sequence (Q9I194 24-193 limits assumed): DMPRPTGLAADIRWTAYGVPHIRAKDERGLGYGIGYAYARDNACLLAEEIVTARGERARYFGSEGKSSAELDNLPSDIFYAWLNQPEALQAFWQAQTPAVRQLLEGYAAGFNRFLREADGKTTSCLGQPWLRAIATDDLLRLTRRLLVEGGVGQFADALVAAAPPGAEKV
Acyl-homoserine lactone acylase PvdQ, sequence (Q9I194 217-762 limits assumed): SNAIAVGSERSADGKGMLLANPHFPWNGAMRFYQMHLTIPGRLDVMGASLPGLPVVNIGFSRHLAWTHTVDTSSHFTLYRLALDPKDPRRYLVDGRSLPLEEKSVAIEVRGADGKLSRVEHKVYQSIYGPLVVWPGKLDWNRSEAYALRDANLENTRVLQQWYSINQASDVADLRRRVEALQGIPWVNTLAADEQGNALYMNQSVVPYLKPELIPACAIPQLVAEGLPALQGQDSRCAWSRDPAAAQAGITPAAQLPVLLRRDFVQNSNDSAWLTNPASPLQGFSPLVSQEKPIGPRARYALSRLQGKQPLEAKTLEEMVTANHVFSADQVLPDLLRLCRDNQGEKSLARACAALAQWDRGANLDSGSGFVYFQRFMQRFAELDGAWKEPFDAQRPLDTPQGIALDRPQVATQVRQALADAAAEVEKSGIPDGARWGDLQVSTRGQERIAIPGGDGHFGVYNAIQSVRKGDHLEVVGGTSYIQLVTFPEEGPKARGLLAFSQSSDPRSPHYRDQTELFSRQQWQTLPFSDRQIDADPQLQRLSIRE
Voltage-gated inwardly rectifying potassium channel KCNH2, sequence (Q12809 whole entry): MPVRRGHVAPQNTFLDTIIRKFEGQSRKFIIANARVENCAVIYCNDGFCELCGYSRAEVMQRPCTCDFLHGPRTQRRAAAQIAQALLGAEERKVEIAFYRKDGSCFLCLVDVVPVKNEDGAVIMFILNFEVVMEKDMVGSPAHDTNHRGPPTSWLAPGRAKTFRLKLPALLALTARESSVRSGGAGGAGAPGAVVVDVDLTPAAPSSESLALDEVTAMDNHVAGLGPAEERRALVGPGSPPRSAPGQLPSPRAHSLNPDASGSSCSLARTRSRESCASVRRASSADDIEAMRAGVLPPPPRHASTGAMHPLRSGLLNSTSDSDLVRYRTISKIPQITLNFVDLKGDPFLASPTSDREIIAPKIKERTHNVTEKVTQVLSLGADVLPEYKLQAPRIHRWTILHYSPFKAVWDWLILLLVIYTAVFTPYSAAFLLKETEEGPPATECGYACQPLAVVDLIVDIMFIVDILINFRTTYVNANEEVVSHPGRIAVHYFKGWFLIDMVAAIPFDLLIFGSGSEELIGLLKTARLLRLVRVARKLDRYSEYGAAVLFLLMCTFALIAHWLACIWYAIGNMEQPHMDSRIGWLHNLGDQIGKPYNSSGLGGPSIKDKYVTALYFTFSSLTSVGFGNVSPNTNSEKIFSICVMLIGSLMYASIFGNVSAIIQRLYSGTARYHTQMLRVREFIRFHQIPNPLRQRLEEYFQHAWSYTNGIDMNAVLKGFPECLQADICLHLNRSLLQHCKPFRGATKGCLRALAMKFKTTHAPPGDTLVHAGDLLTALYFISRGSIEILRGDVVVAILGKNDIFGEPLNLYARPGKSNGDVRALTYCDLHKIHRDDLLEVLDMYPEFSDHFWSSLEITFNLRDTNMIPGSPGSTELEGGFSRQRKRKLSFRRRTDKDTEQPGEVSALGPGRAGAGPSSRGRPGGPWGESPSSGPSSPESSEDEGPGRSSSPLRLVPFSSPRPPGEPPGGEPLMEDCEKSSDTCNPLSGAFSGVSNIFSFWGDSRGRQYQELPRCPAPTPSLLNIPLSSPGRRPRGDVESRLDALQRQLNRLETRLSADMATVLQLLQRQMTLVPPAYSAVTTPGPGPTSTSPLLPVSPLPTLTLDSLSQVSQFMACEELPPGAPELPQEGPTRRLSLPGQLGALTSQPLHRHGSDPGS

With `CC(C)COC(=O)COc1cc(Cl)c(Cl)cc1Cl` the AC50 [1] was 39.8 µM (inconclusive).
For `CN(Cc1ccccc1)c1ncnc2ccc(Br)cc12`, the AC50 [2] was 4.49 µM (active) and the AC50 [3] was 115 µM (active).
With `CN1CCN(C(=S)c2cn(Cc3ccc(Br)cc3)c3ccccc23)CC1` the AC50 [4] was 48.2 µM (active).
With `CCOC(=O)Cn1cc([N+](=O)[O-])nc1[N+](=O)[O-]` the AC50 [5] was 29.5 µM (active), the AC50 [6] was > 11 µM (active) and the AC50 [7] was > 11 µM (active).
With `COc1cc2c(cc1OC)-c1cc(NCCO)nc(=O)n1CC2` the IC50 [8] was > 80 µM (inactive) and the IC50 [9] was > 80 µM (inactive).
In the case of `O=c1c2ccccc2nc(/C=C/c2cccnc2)n1Cc1ccc(Cl)cc1`, the IC50 [10] is reported as > 80 µM (inactive) and the IC50 [11] is reported as > 80 µM (inactive).
